The results in this text go back to PubChem BioAssay (NCI).

Assay in all cases: NCI tumour cell line growth inhibition, 48 h
For test [1], the system named is HCT-116 colon.
Test [2] has as its system M14 melanoma.
For test [3], the system named is SN12C renal.
Test [4] deals with LOX IMVI melanoma.
In test [5] the test system is UACC-62 melanoma.
The subject of test [6] is RPMI-8226 leukemia.
Test [7] has as its system A549 NSCLC.
Test [8] deals with SK-OV-3 ovarian.
Test [9] has as its system SF-295 CNS.
In test [10] the test system is OVCAR-3 ovarian.

Structures are written as SMILES.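 Each compound was tested at five concentrations against cells in 96-well plates for 48 hours. GI50 marks 50% less growth. TGI is the concentration that stops growth completely.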

As to `Cn1cc(-c2ccc3c(c2)ncn3-c2ccc(CC(=O)Nc3cc(C(C)(C)C)on3)cc2)cn1`, the GI50 is 1.89 µM in test [1]; 1.1 µM in test [2]; 0.379 µM in [3]; 0.732 µM in [4]; 1.53 µM in [5]; 3.35 µM in test [6]. For the same compound, the GI50 in [7] was 1.49 µM; in [8], 1.01 µM; in [9] it was 1.26 µM; in [10], 2.06 µM. Also, the TGI in [1] was 7.43 µM; in [2] it was 10.5 µM; in test [3] it was 8.09 µM; in test [4], 4.87 µM; in test [5] it was 11.6 µM; in [6], > 100 µM. The TGI was 8.76 µM in test [7], 4.33 µM in test [8], > 38.8 µM in test [9] and > 39.8 µM in test [10].
For the compound `COC1C2c3ccccc3C(C#N)(Cc3ccc4c(c32)OCO4)N1C(=O)c1ccccc1` (configuration not stated), the TGI in test [1], in test [2], in test [3], in [4], in [5] and in test [6] was > 100 µM each time. Also, the TGI in test [8], in test [9] and in test [10] was > 100 µM each time.
Consider `COc1ccc2c(c1)C(=O)/C(=C/c1ccc(OCC(=O)c3ccc(Cl)cc3)cc1)O2`, for which the GI50 in [1] is 3.07 µM; in test [3], 17.3 µM; in test [4], 5.44 µM; in [5] it was 17.5 µM; in test [6], 3.87 µM; in [7], 31.4 µM. In addition, the GI50 in test [8] was 62.5 µM; in test [9], 30.9 µM; in [10], 12.3 µM. Moreover, the TGI in test [1] is 13 µM; in test [3], 63.9 µM; in [4] it was 19.8 µM; in test [5] it was > 100 µM; in test [6], 21.6 µM; in test [7], > 100 µM. For the same compound, the TGI was > 100 µM in test [8], > 100 µM in [9] and 24.8 µM in test [10].
For `Cc1cc(N(CCC#N)CCC#N)ccc1N=Nc1ccc([N+](=O)[O-])cc1`, the TGI in test [1] is 31.6 µM; in test [2], > 100 µM; in test [3] it was > 100 µM; in test [4], 80.6 µM; in test [5], > 10 µM; in test [6] it was > 100 µM. Besides, the TGI was > 100 µM in test [7], > 10 µM in [8], > 100 µM in test [9] and > 100 µM in [10].
In the case of `Fc1cccc(C=NC23CC4CC(CC(C4)C2)C3)c1`, the TGI in [1], in test [2], in test [3], in test [4], in test [5] and in test [6] was > 100 µM throughout. The TGI in [8], in [9] and in [10] was > 100 µM each time.
Regarding `COc1cc(-c2[nH]ncc2CCCC(=O)Nc2ccccc2[N+](=O)[O-])ccc1O`, the TGI in [1], in test [2], in test [3], in test [4], in test [5] and in test [6] was > 100 µM each time. The TGI in test [7], in test [8] and in test [9] was > 100 µM throughout.
Regarding `Cn1cccc1C1CC(=O)N(CCC[Se]C#N)C1=O` (configuration not stated), the GI50 is 2.34 µM in test [1]; 1.56 µM in test [2]; 1.88 µM in test [4]; 1.87 µM in [5]; 2.2 µM in test [6]; 2.07 µM in test [7]. For the same compound, the GI50 in [8] is 3.22 µM; in test [9] it was 1.81 µM; in test [10] it was 1.92 µM. The TGI is 6.27 µM in [1]; 3.89 µM in test [2]; 4.28 µM in test [4]; 3.91 µM in test [5]; 5.04 µM in test [6]; 5.17 µM in test [7]. Moreover, the TGI in [8] worked out at 6.72 µM; in test [9], 3.29 µM; in [10], 3.99 µM.
For the compound `COc1ccc(C(=O)Nc2ccccc2)cc1[N+](=O)[O-]`, the TGI in test [2], in test [3], in test [4], in [5], in test [6] and in test [7] was > 100 µM in each case. For the same compound, the TGI in test [8], in test [9] and in [10] was > 100 µM each time.
With `Cc1nc(N=C(N)N)nc2ccc3ccccc3c12`, the GI50 is 1.12 µM in test [1]; 1.59 µM in test [2]; 0.49 µM in test [3]; 1.57 µM in test [4]; 2.53 µM in test [6]; 1.95 µM in test [7]. The GI50 in [8] is 1.92 µM; in test [9], 1.03 µM; in test [10] it was 1.32 µM. The TGI in test [1] stood at 4.82 µM; in test [2] it was 3.43 µM; in test [3] it was 3.84 µM; in test [4], 3.18 µM; in test [6], 7.36 µM; in test [7] it was 7.24 µM. The TGI in test [8] was determined as 6.85 µM; in [9], 4.43 µM; in test [10], 3.77 µM.
Take `Nc1ccc(C(=O)O)c2[nH]c3ccccc3c(=O)c12`: the TGI in test [1], in test [2], in test [3], in test [4], in test [5] and in [6] was > 100 µM each time. Further, the TGI in test [7], in test [8] and in test [9] was > 100 µM throughout.
As for `Cc1cc2c(C)nn(Cc3ccc(Cl)cc3Cl)c2c(C#N)c1C`, the TGI in test [1], in test [3], in test [4], in test [5], in test [6] and in test [7] was > 100 µM in each case. Moreover, the TGI in test [8], in test [9] and in test [10] was > 100 µM throughout.
In the case of `Cc1ccc(C)c(NC(=O)CCC(=O)CC(=O)C(C)(C)C)c1`, the TGI in test [1], in test [2], in test [3], in [4], in test [5] and in test [6] was > 100 µM in each case. Besides, the TGI in [7], in test [8] and in test [10] was > 100 µM in each case.
